Assay results as given in patent publication US8334236B2, “Ring-fused 2-pyridone derivatives and herbicides” (Kumiai Chemical Industry Co., Ltd., priority 2009, dated 2012).

Tests used:
Echinochloa crus-galli = experiment: Test Example 2: herbicidal effects in farmland soil treatment; format: in vivo; design: scale not given here; conditions: 1000 g active ingredient per hectare, 21st day after treatment
Setaria viridis [1] = experiment: as above; format: in vivo; design: scale not given here; conditions: 1000 g active ingredient per hectare, 21st day after treatment
Amaranthus retroflexus [2] = experiment: as above; format: in vivo; design: scale not given here; conditions: 1000 g active ingredient per hectare, 21st day after treatment
Method in brief: (§1)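 Pre-emergence soil treatment: wettable powder diluted in water sprayed on farmland soil over freshly sown seeds at 1000 g active ingredient per hectare in 1000 L/ha. Plants grown in greenhouse, herbicidal effect scored visually on a rating scale 21 days after treatment.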

[3] = tested on: Abutilon theophrasti medicus; experiment: as above; format: in vivo; design: scale not given here; conditions: 1000 g active ingredient per hectare, 21st day after treatment
Method in brief: as §1

[4] = tested on: Scirpus juncoides Roxb. var. ohwianus. T. Koyama; experiment: Test Example 1: herbicidal effects in paddy field soil treatment; format: in vivo; design: scale not given here; conditions: 1000 g active ingredient per hectare, 21st day after treatment
Method in brief: (§2)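 Seeds sown in puddled paddy soil flooded to 3 cm; next day, diluted wettable powder dripped onto the water surface at 1000 g active ingredient per hectare. Plants grown in a greenhouse and herbicidal effect scored on a rating scale 21 days after treatment.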

[5] = tested on: Monochoria vaginalis (Burm. f.) Presl var. plantaginea (Roxb.) Solms-Laub.; experiment: as above; format: in vivo; design: scale not given here; conditions: 1000 g active ingredient per hectare, 21st day after treatment
Method in brief: as §2

[6] = tested on: Echinochloa oryzicola Vasing; experiment: as above; format: in vivo; design: scale not given here; conditions: 1000 g active ingredient per hectare, 21st day after treatment
Method in brief: as §2

Setaria viridis [7] = experiment: Test Example 3: herbicidal effects in farmland foliar treatment; format: in vivo; design: scale not given here; conditions: 1000 g active ingredient per hectare, 14th day after treatment
Amaranthus retroflexus [8] = experiment: as above; format: in vivo; design: scale not given here; conditions: 1000 g active ingredient per hectare, 14th day after treatment
Method in brief: (§3)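 Weeds grown two weeks in farmland soil in a greenhouse, then sprayed over the foliage with diluted wettable powder at 1000 L/ha, delivering 1000 g active ingredient per hectare. Herbicidal effect scored 14 days after treatment against set rating criteria.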

[9] = tested on: Echinochloa crus-galli (L.) P. Beauv. var. crus-galli; experiment: as above; format: in vivo; design: scale not given here; conditions: 1000 g active ingredient per hectare, 14th day after treatment
Method in brief: as §3

[10] = tested on: Abutilon theophrasti medicus; experiment: as above; format: in vivo; design: scale not given here; conditions: 1000 g active ingredient per hectare, 14th day after treatment
Method in brief: as §3

| SMILES | Herbicidal effect index, Echinochloa crus-galli (Echinochloa crus-galli) | Herbicidal effect index, Setaria viridis (Setaria viridis [1]) | Herbicidal effect index, Amaranthus retroflexus (Amaranthus retroflexus [2]) | Herbicidal effect index, Abutilon thophrasti [3] | Herbicidal effect index, Scirpus juncoides [4] | Herbicidal effect index, Monochoria vaginalis [5] | Herbicidal effect index, Echinochloa oryzicola [6] | Herbicidal effect index, Setaria viridis (Setaria viridis [7]) | Herbicidal effect index, Amaranthus retroflexus (Amaranthus retroflexus [8]) | Herbicidal effect index, Echinochloa crus-galli [9] | Herbicidal effect index, Abutilon theoprasti [10] | melting point |
| --- | --- | --- | --- | --- | --- | --- | --- | --- | --- | --- | --- | --- |
| Cn1c(=O)c(C(=O)C2=C(O)CCCC2=O)cc2ccc(C(F)(F)F)nc21 [II-136, 3-(2-hydroxy-6-oxo-1-cyclohexenecarbonyl)-1-methyl-7-(trifluoromethyl)-1,8-naphthyridin-2(1H)-one] | 5 | 4 | 5 | 4 | 5 | 5 | 5 | 4 | 5 | 5 | 5 | 194 to 196 °C |
| CCSCn1c(=O)c(C(=O)C2=C(O)CCCC2=O)cc2cccnc21 [II-19, 1-(ethylthiomethyl)-3-(2-hydroxy-6-oxo-1-cyclohexenecarbonyl)-1,8-naphthyridin-2(1H)-one] | 4 | 4 | 5 | 5 | 5 | 5 | 5 | 5 | 5 | 5 | 5 | 108 to 110 °C |
| Cn1c(=O)c(C(=O)C2=C(O)CCCC2=O)cc2cccnc21 [II-2, 3-(2-hydroxy-6-oxo-1-cyclohexenecarbonyl)-1-methyl-1,8-naphthyridin-2(1H)-one] | 5 | 5 | 5 | 5 | 5 | 5 | 5 | 4 | 5 | 5 | 5 | 151 to 153 °C |
| COc1ccc(-n2c(=O)c(C(=O)C3=C(O)CCCC3=O)cc3cccnc32)cn1 [II-92, 3-(2-hydroxy-6-oxo-1-cyclohexenecarbonyl)-1-(6-methoxy-3-pyridinyl)-1,8-naphthyridin-2(1H)-one] | 5 | 4 | 5 | 5 | 5 | 5 | 5 | 5 | 5 | 5 | 5 | 220 to 222 °C |
